Laboratory results: US11117899B2, “[1,2,4]triazolo[1,5-c]pyrimidine derivative as A2A receptor inhibitor” (MEDSHINE DISCOVERY INC., priority 2017, dated 2021)

Target: T1, Human adenosine A2A receptor (Homo sapiens, UniProt P29274)
T1 construct: host or cells: CHO
Assay: Human adenosine A2A receptor calcium flux assay
Assay type: cell-based
Settings: A2A stable CHO cell strain, antagonist mode against agonist NECA at EC80, FLIPR Fluo-4
Protocol: Human adenosine A2A receptor calcium flux assay
A2A stable cell strain was constructed by Shanghai WuXi PharmaTech, and the host cell was CHO.
Fluo-4 Direct Kit (Invitrogen, Cat. No. F10471). After the fluorescent detection reagent (specifically binding to calcium ions and causing an increase in fluorescence signal) in the kit was incubated with the cells for a suitable period of time, the compound was added to stimulate the cells to cause changes in intracellular calcium flux, thereby causing changes in the fluorescent signal, which can reflect the strength of the agonistic or inhibitory activity of the compound.
F12+10% fetal bovine serum+geneticin 300 ug/ml+blasticidin 2 ug/ml Compound dilution buffer:
Hanks Balanced Salt Buffer (Invitrogen)+20 mM HEPES, configured before each use
The test compounds were dissolved in DMSO to prepare 10 mM stock solutions. The test compounds were diluted to 0.2 mM with DMSO, and the reference compound CGS-15943 was diluted to 0.015 mM with DMSO. Next, 10 points of three-fold serial dilutions were made with ECHO. 900 nl was transferred to the compound plate (Greiner-781280), and 30 ul of compound dilution buffer was added. The final starting concentration of the test compounds was 1 uM and CGS-15943 was 0.075 uM.
Cryopreserved A2A cells were resuscitated, and then resuspended in culture medium to 1×10^6 cells/ml. The suspension was seeded into 384-well polylysine-coated cell plates (Greiner-781946) at 20 μl/well and incubated overnight in a 5% CO2 incubator at 37° C.
The cell plate prepared the day before was taken out from the incubator, and 20 ul of 2× Fluo-4 Direct™ buffer was added to each well. The plate was incubated for 50 minutes in a 5% CO2 incubator at 37° C. and allowed to stand at room temperature for 10 minutes.
Dilution of agonist NECA: 10 points of three-fold serial dilutions were made with Echo for NECA from a starting concentration of 0.15 mM. 900 nL was then transferred to the corresponding compound plate; and then 30 μl of compound dilution buffer was added to the corresponding compound plate. The final starting concentration was 750 nM.
FLIPR instrument software was run. According to the programmed procedure, 10 ul of compound dilution buffer was added to the cell plate and the fluorescence signal was read. 10 ul of the agonist reference compound at the indicated concentration was then added to the cell plate and the fluorescent signal was read. After reading, the data was exported by the “Max-Min”, “Read 90 to Maximum allowed” method in the software, and the EC80 of the A2A cell line was calculated. The agonist was prepared at a concentration of 6× EC80. A 6× EC80 concentration of a reference compound agonist of the corresponding cells was prepared with a buffer solution, and added at 30 ul/well to the corresponding compound plate for use.
FLIPR instrument software was run. According to the programmed procedure, 10 μl of the test compounds and reference compound at an indicated concentration was added to the cell plate and the fluorescence signal was read. 10 ul of the reference compound agonist at a concentration of 6× EC80 was then added to the cell plate and the fluorescent signal was read. For the agonist detection of the compounds, the data was exported by the “Max-Min”, “Read 1 to 90” method in the software. For the antagonist detection of the compound, the data was exported by the “Max-Min”, “Read 90 to Maximum allowed” method in the software. Data were analyzed by GraphPad Prism 5.0 and the IC50 values of the test compounds were calculated.

T1 sequence (P29274 whole entry): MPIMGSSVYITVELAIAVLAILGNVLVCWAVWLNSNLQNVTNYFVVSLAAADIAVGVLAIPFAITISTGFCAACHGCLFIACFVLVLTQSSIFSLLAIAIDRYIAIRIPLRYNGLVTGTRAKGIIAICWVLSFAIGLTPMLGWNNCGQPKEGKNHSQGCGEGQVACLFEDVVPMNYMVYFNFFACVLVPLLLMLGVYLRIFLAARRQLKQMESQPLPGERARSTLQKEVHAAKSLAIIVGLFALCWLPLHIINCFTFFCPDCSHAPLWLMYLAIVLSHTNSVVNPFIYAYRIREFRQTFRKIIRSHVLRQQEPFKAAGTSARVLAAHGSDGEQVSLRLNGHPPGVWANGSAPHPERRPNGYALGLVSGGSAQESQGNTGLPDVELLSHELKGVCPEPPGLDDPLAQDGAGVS

| SMILES | IC50 [nM] |
| --- | --- |
| Cc1cc(-c2c(-c3cc(F)cc(F)c3)nc(N)n3ncnc23)cc(C(F)(F)F)n1 [Example A-5] | 0.83 |
| COc1ccc(-c2nc(N)n3ncnc3c2-c2cc(C)nc(C(F)(F)F)c2)cc1 [Example A-6] | 1.04 |
| Cc1cc(-c2c(-c3ccccn3)nc(N)n3ncnc23)cc(C(F)(F)F)n1 [Example A-7] | 5.83 |
| Cc1cc(-c2c(-c3nccs3)nc(N)n3ncnc23)cc(C(F)(F)F)n1 [Example A-8] | 23.9 |
| Cc1cc(-c2c(-c3ccc(Cl)cc3)nc(N)n3ncnc23)cc(C(F)(F)F)n1 [Example A-9] | 1.13 |
| Cc1cc(-c2c(-c3ccc(O)cc3)nc(N)n3ncnc23)cc(C(F)(F)F)n1 [Example A-10] | 0.88 |
| Cc1cc(-c2c(-c3ccncc3)nc(N)n3ncnc23)cc(C(F)(F)F)n1 [Example A-11] | 3.87 |
| Cc1cc(-c2c(-c3cccnc3)nc(N)n3ncnc23)cc(C(F)(F)F)n1 [Example A-12] | 11.4 |
| Cc1cc(-c2c(-c3ccc(C(F)(F)F)cc3)nc(N)n3ncnc23)cc(C(F)(F)F)n1 [Example A-13] | 13.8 |
| Cc1cc(-c2c(-c3ccc(C#N)cc3)nc(N)n3ncnc23)cc(C(F)(F)F)n1 [Example A-14] | 4.07 |
| Cc1cc(-c2c(-c3ccc(F)cc3)nc(N)n3ncnc23)cc(C(F)(F)F)n1 [Example A-15] | 0.38 |
| Cc1cc(-c2c(-c3ccccc3F)nc(N)n3ncnc23)cc(C(F)(F)F)n1 [Example A-17] | 1.3 |
| Cc1cc(-c2c(-c3ccco3)nc(N)n3ncnc23)cc(C(F)(F)F)n1 [Example A-19] | 1.16 |
| Cc1cc(-c2c(-c3ccn(C)n3)nc(N)n3ncnc23)cc(C(F)(F)F)n1 [Example A-21] | 0.9 |
| COc1cc(F)ccc1-c1nc(N)n2ncnc2c1-c1cc(C)nc(C(F)(F)F)c1 [Example A-23] | 1.15 |
| COc1cc(F)ccc1-c1nc(N)n2ncnc2c1-c1cc(C)nc(C)c1 [Example A-24] | 4.9 |
| Cc1cc(-c2c(-c3ccc(F)cc3F)nc(N)n3ncnc23)cc(C(F)(F)F)n1 [Example A-25] | 1.14 |
| Cc1cc(-c2c(-c3ccc(F)cc3F)nc(N)n3ncnc23)cc(C)n1 [Example A-26] | 0.87 |
| COc1ccccc1-c1nc(N)n2ncnc2c1-c1cc(C)nc(C)c1 [Example A-27] | 4.38 |
| Cc1cc(-c2c(-c3ccccc3Cl)nc(N)n3ncnc23)cc(C)n1 [Example A-28] | 37.4 |
| COc1cc(F)ccc1-c1nc(N)n2ncnc2c1-c1ccc2nn[nH]c2c1 [Example A-29] | 37.2 |
| COc1ccccc1-c1nc(N)n2ncnc2c1-c1ccc2nn[nH]c2c1 [Example A-30] | 20.4 |
| COc1ccccc1-c1nc(N)n2ncnc2c1-c1cc(Cl)nc(C(F)(F)F)c1 [Example A-31] | 1.25 |
| COc1ccc(F)cc1-c1nc(N)n2ncnc2c1-c1cc(Cl)nc(C(F)(F)F)c1 [Example A-32] | 1.21 |
| COc1c(F)cc(F)cc1-c1nc(N)n2ncnc2c1-c1cc(Cl)nc(C(F)(F)F)c1 [Example A-33] | 15.3 |

Other lines, results leading:

| IC50 [nM] | SMILES |
| --- | --- |
| 7.82 | Cc1cc(-c2c(-c3ccccc3)nc(N)n3ncnc23)ccc1F [Example B-2] |
| 9.92 | COc1ccc(-c2c(-c3ccccc3)nc(N)n3ncnc23)cc1Cl [Example B-3] |
| 0.14 | Nc1nc(-c2ccccc2)c(-c2ccc(O)c(Cl)c2)c2ncnn12 [Example B-4] |
| 0.17 | Nc1nc(-c2ccccc2)c(-c2ccc3[nH]ncc3c2)c2ncnn12 [Example B-7] |
| 0.44 | Nc1nc(-c2ccccc2)c(-c2ccc3[nH]cnc3c2)c2ncnn12 [Example B-8] |
| 48 | Nc1nc(-c2ccccc2)c(-c2ccc3c(c2)OCO3)c2ncnn12 [Example B-9] |
| 1.98 | Nc1nc(-c2ccccc2)c(-c2ccc3[nH]nc(C(F)(F)F)c3c2)c2ncnn12 [Example B-10] |
| 0.71 | Nc1nc(-c2ccccc2)c(-c2ccc(O)c(C(F)(F)F)c2)c2ncnn12 [Example B-13] |
| 0.47 | Nc1nc(-c2ccccc2)c(-c2cc(C(F)(F)F)c3[nH]ncc3c2)c2ncnn12 [Example B-14] |
| 0.44 | Nc1nc(-c2ccccc2)c(-c2cc(Cl)c(O)c(Cl)c2)c2ncnn12 [Example B-15] |
| 0.14 | Nc1nc(-c2ccccc2)c(-c2ccc3ncccc3c2)c2ncnn12 [Example B-16] |
| 1.89 | Nc1nc(-c2ccccc2)c(-c2ccc3c(c2)CCCN3)c2ncnn12 [Example B-17] |
| 71.3 | Nc1nc(-c2ccccc2)c(-c2ccc3c(c2)CC(=O)N3)c2ncnn12 [Example B-20] |
| 50.5 | Nc1nc(-c2ccccc2)c(-c2cc(C3CC3)nc(C(F)(F)F)c2)c2ncnn12 [Example B-23] |
| 1.18 | CC1C=C(c2c(-c3ccccc3)nc(N)n3ncnc23)CC(C)O1 (stereo not drawn) [Example B-24] |
| 14.8 | Cc1cc(Cl)cc(-c2c(-c3ccccc3)nc(N)n3ncnc23)c1 [Example B-26] |
| 0.28 | COc1cc(-c2c(-c3ccccc3)nc(N)n3ncnc23)ccn1 [Example B-27] |
| 0.11 | COc1cc(-c2c(-c3ccccc3)nc(N)n3ncnc23)cc(C)n1 [Example B-29] |
| 2.83 | CCc1cc(-c2c(-c3ccccc3)nc(N)n3ncnc23)cc(C(F)(F)F)n1 [Example B-32] |
| 0.12 | Nc1nc(-c2ccccc2)c(-c2ccc3[nH]nnc3c2)c2ncnn12 [Example B-33] |
| 19 | CC(C)c1cc(-c2c(-c3ccccc3)nc(N)n3ncnc23)cc(C(F)(F)F)n1 [Example B-34] |

| IC50 [nM] | SMILES |
| --- | --- |
| 0.53 | Cc1cc(-c2c(-c3ccccc3)nc(N)n3nc(C)nc23)cc(C(F)(F)F)n1 [Example C-5] |
| 0.74 | Cc1cc(-c2c(-c3ccccc3)nc(N)n3nc(C)nc23)cc(C)n1 [Example C-6] |
| 1.35 | CCc1nc2c(-c3cc(C)nc(C(F)(F)F)c3)c(-c3ccccc3)nc(N)n2n1 [Example C-7] |
| 0.45 | CCc1nc2c(-c3cc(C)nc(C)c3)c(-c3ccccc3)nc(N)n2n1 [Example C-8] |
| 1.4 | Cc1cc(-c2c(-c3ccccc3)nc(N)n3nc(CC4CC4)nc23)cc(C)n1 [Example C-9] |
| 3.68 | Cc1cc(-c2c(-c3ccccc3)nc(N)n3nc(C4CC4)nc23)cc(C(F)(F)F)n1 [Example C-10] |
| 0.78 | Cc1cc(-c2c(-c3ccccc3)nc(N)n3nc(C4CC4)nc23)cc(C)n1 [Example C-11] |
| 0.82 | Cc1cc(-c2c(-c3ccccc3)nc(N)n3nc(COCc4ccccc4)nc23)cc(C)n1 [Example C-12] |
| 1.02 | COCc1nc2c(-c3cc(C)nc(C(F)(F)F)c3)c(-c3ccccc3)nc(N)n2n1 [Example C-13] |
| 0.68 | COCc1nc2c(-c3cc(C)nc(C)c3)c(-c3ccccc3)nc(N)n2n1 [Example C-14] |
| 20.4 | COc1ccccc1Cc1nc2c(-c3cc(C)nc(C(F)(F)F)c3)c(-c3ccccc3)nc(N)n2n1 [Example C-15] |
| 1.77 | COc1ccccc1Cc1nc2c(-c3cc(C)nc(C)c3)c(-c3ccccc3)nc(N)n2n1 [Example C-16] |
| 10.4 | Cc1cc(-c2c(-c3ccccc3)nc(N)n3nc(CC4CC4)nc23)cc(C(F)(F)F)n1 [Example C-17] |
| 2.39 | Cc1cc(-c2c(-c3ccccc3)nc(N)n3nc(C(=O)NCc4ccc(F)cc4F)nc23)cc(C)n1 [Example C-18] |
| 1.2 | Cc1cc(-c2c(-c3ccccc3)nc(N)n3nc(CNC4CC4)nc23)cc(C)n1 [Example C-20] |
| 0.8 | Cc1cc(-c2c(-c3ccccc3)nc(N)n3nc(C)nc23)cc(Cl)n1 [Example C-21] |
| 2.96 | Cc1nc2c(-c3ccc4[nH]nnc4c3)c(-c3ccccc3)nc(N)n2n1 [Example C-22] |
| 2.63 | Nc1nc(-c2ccccc2)c(-c2ccc3[nH]nnc3c2)c2nc(COCc3ccccc3)nn12 [Example C-23] |
| 0.95 | Nc1nc(-c2ccccc2)c(-c2ccc3[nH]nnc3c2)c2nc(CO)nn12 [Example C-24] |
| 3.16 | CCc1nc2c(-c3ccc4[nH]nnc4c3)c(-c3ccccc3)nc(N)n2n1 [Example C-25] |
